Test results taken from article PMC11247486, “Improving the In Vivo Stability of [^52Mn]Mn(II) Complexes with 18-Membered Macrocyclic Chelators for PET Imaging” (Journal of Medicinal Chemistry, 2024).
Like-named read-outs stand apart in the source and are kept apart here.

Tests used:
[1] = cited from earlier work; for pMn: [Mn^2+] = [L] = 10 μM at pH = 7.4
[2] = cited from earlier work
[3] = pH-potentiometric titrations, stability constants of the Mn(II) complexes; type: physicochemical; settings: 0.15 M NaCl, 25°C
Experimental: The stability constants of the Mn(II) complexes with PYAN and CHXPYAN defined by eq 2 were also determined through pH-potentiometric titrations. [drawing 2] 2
(§1) The protonation constants of PYAN and CHXPYAN and the stability constants of Mn(II) complexes were determined by pH-potentiometric titrations. The metal-to-ligand concentration ratio was 1:1 (the concentration of the ligand was generally 0.002 M). For the pH measurements and titrations, a Metrohm 888 Titrando titration workstation and Metrohm-6.0234.110 combined electrode was used. Equilibrium measurements were carried out at a constant ionic strength (0.15 M NaCl) in 6 mL samples at 25 °C. The solutions were stirred, and N2 was bubbled through them. The titrations were made in the pH range of 1.7–12.0. KH-phthalate (pH = 4.005) and borax (pH = 9.177) buffers were used to calibrate the pH meter. For the calculation of [H^+] from the measured pH values, the method proposed by Irving et al. was used as follows.[59] A 0.01 M HCl solution was titrated with a standardized NaOH solution at 0.15 M NaCl ionic strength. The differences (A) between the measured (pHread) and calculated pH (−log[H^+]) values were used to obtain the equilibrium H^+ concentration from the pH values measured in the titration experiments (A = 0.04). For the equilibrium calculations, the stoichiometric water ionic product (pKw) was also needed to calculate the [OH^–] values under basic conditions. The VNaOH – pHread data pairs of the HCl–NaOH titration obtained in the pH range of 10.5–12.0 were used to calculate the pKw value (pKw = 13.77). The protonation and stability constants were calculated with the PSEQUAD program.[60]

[4] = pH-potentiometric titrations, ligand protonation constants; type: physicochemical; settings: 0.15 M NaCl, 25°C
Experimental: Chelator protonation constants (log Ki^H) defined by eq 1 were determined using pH-potentiometric titrations, which afforded four protonation constants for each chelator attributed to the protonation of the amine N atoms (Table 2, and standard deviations are shown in parentheses). [drawing 1] 1 where i = 1, 2...4. The first two protonation constants adopt nearly identical values for both chelators, while the third and fourth protonation constants are much lower for CHXPYAN than for PYAN, which is consistent with the results obtained by Jackels et al.[25] The high rigidity of CHXPYAN likely forces the protonated amines to be placed at a shorter distance than in PYAN, reducing the values of log K3^H and log K4^H for the cyclohexyl derivative due to electrostatic effects. […] The structurally related 18-membered macrocycle 18-ane-N6 is characterized by a higher basicity compared with PYAN and CHXPYAN, as expected due to the increased number of amine N atoms and its higher flexibility.[43]
as §1

[5] = Transmetalation (dissociation) kinetics of the Mn(II) complexes with Cu2+; type: physicochemical; settings: 0.15 M NaCl, 25 °C
Experimental: There is a wide consensus among the coordination chemistry community that kinetic inertness is more important for the safe use of metal complexes for imaging applications than thermodynamic stability.[8],[49],[50] Thus, we conducted a detailed investigation of the transmetalation kinetics of the Mn-PYAN and Mn-CHXPYAN complexes, by following their exchange reactions with Cu^2+ in the pH range of 2.5–4.5 (eq 3). [drawing 3] 3
All reactions were carried out in the presence of a large excess of Cu^2+ in order to guarantee the pseudo-first-order kinetic conditions. The transmetalation of Mn-PYAN in the pH range ∼2.0–4.5 is very fast, and thus the rates of the reactions were measured using the stopped-flow technique. Conversely, the exchange reactions of the Mn-CHXPYAN complex are slow and could be studied by using conventional methods. The transmetalation reactions of Mn-PYAN and Mn-CHXPYAN were monitored by following the formation of the corresponding Cu(II) complexes at 295 nm.
The kd values increase upon increase in [H^+] and are independent of the concentration of Cu^2+ as it was found for Mn-PCTA, Mn-PC3AM, and Mn-bispidine complexes.[49],[51] […] The increase in the kd values with increasing H^+ concentration can be interpreted in terms of the extremely slow spontaneous (k0, eq 4) and the proton-assisted (k*[Mn(HL), eq 6) dissociation of Mn(II) complexes. The saturation behavior of the plots of kd versus [H^+] (Figure 5) is characteristic for the equilibrium formation and the accumulation of the *[Mn(HL)] intermediate characterized by the *KH protonation constant (eq 5). The analysis of the rate constants obtained for Mn-CHXPYAN indicates a second-order dependence of kd on [H^+], which can be explained by the proton-assisted dissociation of the *[Mn(HL)] intermediate (k^H*[Mn(HL)], eq 7). [drawing 4] 4 [drawing 5] 5 [drawing 6] 6 [drawing 7] 7
In the presence of excess of the exchanging ion, the transmetalation can be treated as a pseudo-first-order process, and the rate of reactions can be expressed with eq 8, where kd is a pseudo-first-order rate constant and [MnL]t is the total concentration of the complex. [drawing 8] 8
Through consideration of all the possible pathways, the rate of the transmetalation of Mn-PYAN and Mn-CHXPYAN with Cu^2+ can be expressed by eq 9 [drawing 9] 9 Considering the total concentration of the Mn(II) complex ([MnL]t = [MnL] + [*Mn(HL)], as well as the equation defining the protonation constant for the formation of the *[Mn(HL)] intermediate (eq 5) and eq 8, the pseudo-first-order rate constant can be expressed as follows [drawing 10] 10 where k1 = k*[Mn(HL)] × *KH and k2 = k^H*[Mn(HL)] × *KH. The rate and protonation constants characterizing the transmetalation of Mn-PYAN and Mn-CHXPYAN with Cu^2+ have been calculated by fitting the kd values presented in Figure 5 to eq 10 and the values obtained are compared with the corresponding values of Mn-DOTA, Mn-DO3A, Mn-PCTA, Mn-PC3AM^H, and Mn-bispidine in Table 3.
Rates of the metal exchange reactions of Mn-PYAN and Mn-CHXPYAN with Cu^2+ were measured by spectrophotometry by following the formation of the related Cu(II) complexes at 295 nm with an Applied Photophysics DX-17MV stopped-flow instrument and PerkinElmer Lambda 365 UV–vis spectrophotometer using 1.0 cm cells, respectively. The concentration of Mn-PYAN and Mn-CHXPYAN was 1.0 × 10^–4 M, whereas the concentration of Cu^2+ was 10 and 20 times higher in order to guarantee pseudo-first-order conditions. The temperature was maintained at 25 °C and the ionic strength of the solutions was kept constant with 0.15 M NaCl. The exchange rates were studied in the pH range of ca. 2.0–4.5. To keep the pH values constant, monochloroacetic acid (pH range 2.0–3.3), 1,4-dimethylpiperazine (pH range 3.3–4.1), and N-methylpiperazine (pH range 4.1–4.5) buffers were used (0.01 M). […]

[6] = Ex vivo biodistribution after PET/CT; type: in vivo, mice
Experimental: [^52Mn]Mn-CHXPYAN and [^52Mn]Mn-PYAN radiocomplexes were evaluated in vivo through 90 min dynamic PET/CT imaging of heathy mice followed by an ex vivo biodistribution analysis. Similarly, [^52Mn]MnCl2 was also studied as a control.
[^52Mn]Mn-CHXPYAN and [^52Mn]Mn-PYAN were synthesized with molar specific activities of 80 and 60 MBq/μmol, respectively. 1.04 ± 0.07 MBq (28 ± 2 μCi) of the radiocomplexes in 100 μL injection doses was prepared. The mice (n = 4 per group) were anesthetized with 2.5% isoflurane in oxygen and were injected via the retroorbital sinus. For comparison purposes, 1.04 ± 0.07 MBq (28 ± 2 μCi) of [^52Mn]MnCl2, pH 7 was also injected. After injection, mice were imaged on a Sofie GNEXT PET/CT scanner for a 90 min dynamic scan (9 frames of 10 min each) followed by a 3 min CT at 80 kVp for anatomical reference. PET images were reconstructed via 3D-OSEM (Ordered Subset Expectation Maximization) algorithm (24 subsets and 3 iterations), with random, attenuation, and decay correction, and CT was reconstructed with the modified Feldkamp algorithm and analyzed using VivoQuant 4.0 (Invicro Imaging Service and Software, Boston MA) software. After imaging, mice were euthanized, and organs were collected, weighed, and counted for associated radioactivity on an automated gamma counter. Radioactivity uptake was calculated as the percent injected dose per gram of tissue (% ID/g). Following the reconstruction of the images, ROIs (heart, liver, kidneys, muscle, and bone) were hand-drawn to determine the SUVs using the VivoQuant imaging software.

[7] = mice; cited from earlier work
[8] = cited from earlier work; remark: listed apart in the source
[9] = healthy mice, 1.5 h postinjection, mean ± SD, n = 4
[10] = Mn(II) complex, 0.1 M Me4NCl, 25 °C
[11] = Mn(II) complex, 0.15 M NaCl, 25 °C

Structure (SMILES): O=C(O)CN(CCN(CC(=O)O)CC(=O)O)CCN(CC(=O)O)CC(=O)O [DTPA^5–, diethylenetriamine-N,N,N′,N″,N″-pentaacetate, reference compound]
- log KMnL ([1]; 0.15 M NaCl, 25°C): 14.54
- pMn ([1]; 0.15 M NaCl): 7.95
- log K1^H ([2]; 0.15 M NaCl, 25°C): 9.97
- log K2^H ([2]; 0.15 M NaCl, 25°C): 8.40
- log K3^H ([2]; 0.15 M NaCl, 25°C): 4.18
- log K4^H ([2]; 0.15 M NaCl, 25°C): 2.68
- log K5^H ([2]; 0.15 M NaCl, 25°C): 2.01
- log K6^H ([2]; 0.15 M NaCl, 25°C): 1.36

Structure (SMILES): c1cc2nc(c1)CN[C@@H]1CCCC[C@H]1NCc1cccc(n1)CN[C@@H]1CCCC[C@H]1NC2 [CHXPYAN, (4^1R,4^2R,10^1R,10^2R)-3,5,9,11-tetraaza-1,7(2,6)-dipyridina-4,10(1,2)-dicyclohexanacyclododecaphane]
- log KMnL ([1]; 0.2 M KNO3): ~13
- pMn ([3]; pMn = −log[Mn]free when [Mn^2+] = [L] = 10 μM at pH = 7.4): 7.41
- log KMnL ([3]; stability constant of the Mn(II) complex): 12.51(3)
- log K1^H ([2]; 0.2 M KNO3): 9.25
- log K2^H ([2]; 0.2 M KNO3): 8.57
- log K3^H ([2]; 0.2 M KNO3): 4.75
- log K4^H ([2]; 0.2 M KNO3): 4.03
- log K1^H [4]: 9.16(2)
- log K2^H [4]: 8.27(2)
- log K3^H [4]: 4.55(2)
- log K4^H [4]: 2.54(3)
- k1 ([5]; Mn(II) complex of the chelator): 0.23 ± 0.03 M^–1 s^–1
- k2 ([5]; Mn(II) complex of the chelator): (6.4 ± 0.8) × 10^3 M^–2 s^–1
- kd at pH = 7.4 ([5]; Mn(II) complex of the chelator): 9.0 × 10^–9 s^–1
- log*KH ([5]; protonation constant of the *[Mn(HL)] intermediate): 3.33 (5)

Structure (SMILES): [52Mn+2].[Cl-].[Cl-] [[^52Mn]MnCl2, reference compound]
- Biodistribution, Blood [6, 9]: 0.60 ± 0.11 % ID/g
- Biodistribution, Brain [6, 9]: 0.54 ± 0.26 % ID/g
- Biodistribution, Fat [6, 9]: 1.12 ± 0.53 % ID/g
- Biodistribution, Femur [6, 9]: 2.42 ± 0.36 % ID/g
- Biodistribution, Heart [6, 9]: 12.14 ± 7.31 % ID/g
- Biodistribution, Kidney [6, 9]: 38.14 ± 6.06 % ID/g
- Biodistribution, Liver [6, 9]: 13.00 ± 6.07 % ID/g
- Biodistribution, Muscle [6, 9]: 0.25 ± 0.13 % ID/g
- Biodistribution, Skin [6, 9]: 0.31 ± 0.11 % ID/g
- Biodistribution, Spleen [6, 9]: 4.83 ± 2.04 % ID/g
- Biodistribution, Stomach [6, 9]: 4.78 ± 3.02 % ID/g
- Biodistribution, L. Intestine ([6]; mouse, in vivo, 1.5 h): 6.48 ± 1.56 % ID/g
- Biodistribution, S. Intestine ([6]; mouse, in vivo, 1.5 h): 14.23 ± 5.70 % ID/g
- uptake, heart [7]: 16.01 ± 0.1 % ID/g
- uptake, kidney [7]: 29.9 ± 9.6 % ID/g
- uptake, liver [7]: 9.6 ± 1.9 % ID/g
- uptake, pancreas [7]: 4.1 ± 1.1 % ID/g
- uptake, spleen [7]: 4.2 ± 0.6 % ID/g

Structure (SMILES): O=C(O)CN1CCN(CC(=O)O)CCN(CC(=O)O)CCN(CC(=O)O)CC1 [DOTA^4–, 1,4,7,10-tetraazacyclododecane-1,4,7,10-tetraacetate]
- k0 ([8]; Mn(II) complex of the chelator, 0.1 M Me4NCl, 25 °C): 1.8 × 10^–7 s^–1
- kd at pH = 7.4 ([8]; Mn(II) complex, 0.1 M Me4NCl, 25 °C, calculated using a Zn^2+ concentration of 10^–5 M): 1.8 × 10^–7 ^a s^–1
- k1 [8, 10]: 4.0 × 10^–2 M^–1 s^–1
- k2 [8, 10]: 1.6 × 10^3 M^–2 s^–1
- k3^Zn [8, 10]: 1.5 × 10^–5 M^–1 s^–1
- log*KH [8, 10]: 4.26

Structure (SMILES): O=C(O)CN1CCNCCN(CC(=O)O)CCN(CC(=O)O)CC1 [DO3A^3–, 1,4,7,10-tetraazacyclododecane-1,4,7-triacetate]
- k1 [8, 11]: 0.45 M^–1 s^–1
- k2 [8, 11]: 3.2 × 10^2 M^–2 s^–1
- kd at pH = 7.4 [8, 11]: 1.8 × 10^–8 s^–1

Structure (SMILES): C1CNCCNCCNCCNCCNCCN1 [18-ane-N6, 1,4,7,10,13,16-Hexa-Azacyclo-Octadecane, reference compound]
- log KMnL ([1]; 0.2 M NaClO4, 25°C): 10.5
- pMn ([1]; 0.2 M NaClO4): 5.05
- log K1^H ([2]; 0.2 M NaClO4, 25°C): 10.19
- log K2^H ([2]; 0.2 M NaClO4, 25°C): 9.23
- log K3^H ([2]; 0.2 M NaClO4, 25°C): 8.73
- log K4^H ([2]; 0.2 M NaClO4, 25°C): 4.09
- log K5^H ([2]; 0.2 M NaClO4, 25°C): 2
- log K6^H ([2]; 0.2 M NaClO4, 25°C): <1

Structure (SMILES): O=C([O-])CN(CCN(CC(=O)[O-])CC(=O)[O-])CCN(CC(=O)[O-])CC(=O)[O-].[Mn+2] [Mn-DTPA]
- time at which complex dissociation in the presence of Cu^2+ is complete (dead time of the stopped-flow technique) [8]: ≤ 2 ms

Structure (SMILES): NC(=O)CN1CCN(CC(N)=O)Cc2cccc(n2)CN(CC(N)=O)CC1 [PC3AM^H]
- k1 [8, 11]: 1.7 × 10^–2 M^–1 s^–1
- kd at pH = 7.4 [8, 11]: 4.3 × 10^–10 s^–1
